Test system: 429239-143-T-J1-PDC complex spheroid viability
Experiment: Anticancer human tumor 429239-143-T-J1-PDC patient-derived small cell lung carcinoma cell line growth inhibition [POLQ]
Details: for IC50: curve of first compound; for viability, T/C: stronger effect = lower value; active = viability on the fitted dose curve at most 10% of control; inactive = the rest
Description: Multicellular complex tumor spheroid response to Polymerase (POL) inhibitors (novobiocin, ART-558, RP6685) in combination with a variety of drugs and investigational agents in selected tumor cell lines
The POL inhibitors (novobiocin, ART-558, and RP6685) were evaluated both individually and in combination with standard of care and investigational anticancer small molecules within a complex spheroid model of solid tumors. . Complex spheroids include a stromal component modeled by human endothelial cells (HUVEC) and fibroblasts modeled by human mesenchymal stem cells (MSCs). The concentration ranges selected for each drug and investigational agent were based upon clinically achievable concentrations if the clinical Cmax of the agent was known.
Compounds. The drugs and investigational agents: novobiocin (NSC847541), ART-558 (NSC835418), RP-6685 (NSC848927), peposertib (NSC802822), ceralasertib (NSC780249), elimusertib (NSC800525), camonsertib (NSC841442), AZD-1390 (NSC803789), olaparib (NSC753686), talazoparib (NSC767125), rucaparib (NSC756644), sotorasib (NSC818433), MRTX-1133 (NSC836407), SN-38 (NSC673596), topotecan (NSC609699), epotoside (NSC141540), doxorubicin (NSC123127), gemcitabine (NSC613327), 5-fluorouracil (NSC19893), paclitaxel (NSC125973), vemurafenib (NSC761431), MSA-2 (NSC828583), SN-011 (NSC837082), adavosertib (NSC754352), prexasertib (NSC758257), carboplatin (NSC241240) and oxaliplatin (NSC266046), were obtained from the National Cancer Institute (NCI) Developmental Therapeutics Program Chemical Repository (21). The FDA-approved anticancer drug set is available from the Developmental Therapeutics Program at https://dtp.cancer.gov/organization/dscb/obtaining/. […] The stock solutions were prepared in dimethyl sulfoxide (DMSO, Sigma-Aldrich, St. Louis, MO, cat. D2650), except for the platinum compounds which were prepared in saline (Quality Biological, Gaithersburg, MD, cat. 114-055-101), at 800-fold the tested concentration and stored at -70 degrees C prior to their use. All drugs and investigational agents were tested over a range starting from a high concentration at or near the clinical Cmax and decreasing in half-log increments. If the clinical Cmax for an agent had not been determined, the highest concentration tested was 10 microM, except for SN-38, which was tested at a high concentration of 1 microM.
Cell Culture. All cells were maintained in an incubator at 37 degrees C and 5% CO2 with 95% humidity. The PDC lines were cultured according to standard operating procedures established by the NCI PDMR (https://pdmr.cancer.gov). Table 3 of the manuscript, lists the cell lines along with the number of the three cell types plated to form the mct-spheroids and media for tumor cell growth. After thawing, all PDC lines, except 997537-175-T-J1-PDC and 415267-285-R-J2-PDC, were cultured in Matrigel-coated flasks prepared with a working solution of 1X Ham's F-12 nutrient mix, without supplementation (Thermo Fisher Scientific, cat. 11765054), 100 U/mL penicillin-streptomycin (Thermo Fisher Scientific, cat. 15140122), and 2.5% Matrigel (Corning Inc., Corning, NY, cat. 354248) for the first three passages. The two PDC lines 997537-175-T-J1-PDC and 415267-285-R-J2-PDC were cultured on uncoated flasks. The 857933-349-R-J2-PDC line was cultured in 6C/Colon 1B media containing advanced DMEM/F-12 (Thermo Fisher Scientific, cat. 12634028), 10 mM HEPES (Thermo Fisher Scientific, cat. 15630080), 1X GlutaMAX supplement (Thermo Fisher Scientific, cat. 35050061), 0.1 mg/mL primocin (InvivoGen, San Diego, CA, cat. ant-pm-2), 10% defined fetal bovine serum, heat inactivated (HyClone Laboratories Inc., Logan, UT, cat. SH30070.03HI), 50% L-WRN conditioned media (ATCC, cat. CRL-3276), 1.25 mM N-Acetyl-L-cysteine (Sigma-Aldrich, cat. A9165), 10 mM nicotinamide (Sigma-Aldrich, cat. N0636), 1X B-27 supplement (Thermo Fisher Scientific, cat. 17504044), 1X N-2 supplement (Thermo Fisher Scientific, cat. […]

[1] = second compound 0.0316 µM, first compound 0.0316 µM
[2] = second compound 0.0316 µM, first compound 0.1 µM
[3] = second compound 0.1 µM, first compound 0.0316 µM
[4] = second compound 0.1 µM, first compound 0.1 µM
[5] = second compound 0.316 µM, first compound 0.0316 µM
[6] = second compound 0.316 µM, first compound 0.1 µM
[7] = second compound 1 µM, first compound 0.0316 µM
[8] = second compound 1 µM, first compound 0.1 µM
[9] = second compound 3.16 µM, first compound 0.0316 µM
[10] = second compound 3.16 µM, first compound 0.1 µM
[11] = second compound 10 µM, first compound 0.0316 µM
[12] = second compound 10 µM, first compound 0.1 µM
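Note: luminescence signal used as surrogate measure of viable cells; spheroids exposed to compounds for seven days before readout.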
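Throughout, for viability, T/C: 100% = DMSO vehicle control viability as luminescence relative to vehicle.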

CCc1cc2c(N3CCc4c(cc(Cn5ccnc5)cc4-c4cn(C)nc4C(F)(F)F)C3=O)ccnc2c(OC)n1 + COC1C(OC(N)=O)C(O)C(Oc2ccc3c(O)c(NC(=O)c4ccc(O)c(CC=C(C)C)c4)c(=O)oc3c2C)OC1(C)C
2270 nM: IC50 (second compound 1 µM)
inactive: viability, T/C [1] 93.4% | viability, T/C [2] 96.9% | viability, T/C (second compound 0.0316 µM, first compound 0.316 µM) 71.1% | viability, T/C (second compound 0.0316 µM, first compound 1 µM) 68.2% | viability, T/C (second compound 0.0316 µM, first compound 3.16 µM) 45.8% | viability, T/C (second compound 0.0316 µM, first compound 10 µM) 39.6% | viability, T/C [3] 107% | viability, T/C [4] 93% | viability, T/C (second compound 0.1 µM, first compound 0.316 µM) 69.5% | viability, T/C (second compound 0.1 µM, first compound 1 µM) 74% | viability, T/C (second compound 0.1 µM, first compound 3.16 µM) 42.3% | viability, T/C (second compound 0.1 µM, first compound 10 µM) 32.6% | viability, T/C [5] 86.2% | viability, T/C [6] 74.3% | viability, T/C (second compound 0.316 µM, first compound 0.316 µM) 73.5% | viability, T/C (second compound 0.316 µM, first compound 1 µM) 65.5% | viability, T/C (second compound 0.316 µM, first compound 3.16 µM) 45.1% | viability, T/C (second compound 0.316 µM, first compound 10 µM) 33.4% | viability, T/C [7] 89.7% | viability, T/C [8] 83.9% | viability, T/C (second compound 1 µM, first compound 0.316 µM) 61.8% | viability, T/C (second compound 1 µM, first compound 1 µM) 62% | viability, T/C (second compound 1 µM, first compound 3.16 µM) 49.2% | viability, T/C (second compound 1 µM, first compound 10 µM) 32.8% | viability, T/C [9] 96.7% | viability, T/C [10] 74.8% | viability, T/C (second compound 3.16 µM, first compound 0.316 µM) 71.5% | viability, T/C (second compound 3.16 µM, first compound 1 µM) 50.5% | viability, T/C (second compound 3.16 µM, first compound 3.16 µM) 46.4% | viability, T/C (second compound 3.16 µM, first compound 10 µM) 37.3% | viability, T/C [11] 91.8% | viability, T/C [12] 85.7% | viability, T/C (second compound 10 µM, first compound 0.316 µM) 67.8% | viability, T/C (second compound 10 µM, first compound 1 µM) 46.7% | viability, T/C (second compound 10 µM, first compound 3.16 µM) 40.2% | viability, T/C (second compound 10 µM, first compound 10 µM) 39.6%
843 nM: IC50 (second compound 10 µM)
2660 nM: IC50 (second compound 0.316 µM)
2630 nM: IC50 (second compound 0.1 µM)
1720 nM: IC50 (second compound 3.16 µM)
2760 nM: IC50 (second compound 0.0316 µM)

Cn1ncnc1[C@H]1c2n[nH]c(=O)c3cc(F)cc(c23)N[C@@H]1c1ccc(F)cc1 + COC1C(OC(N)=O)C(O)C(Oc2ccc3c(O)c(NC(=O)c4ccc(O)c(CC=C(C)C)c4)c(=O)oc3c2C)OC1(C)C
14.3 nM: IC50 (second compound 10 µM)
inactive: viability, T/C (second compound 0.0316 µM, first compound 0.000316 µM) 97.7% | viability, T/C (second compound 0.0316 µM, first compound 0.001 µM) 89.6% | viability, T/C (second compound 0.0316 µM, first compound 0.00316 µM) 83.6% | viability, T/C (second compound 0.0316 µM, first compound 0.01 µM) 62.6% | viability, T/C [1] 47% | viability, T/C [2] 27.8% | viability, T/C (second compound 0.1 µM, first compound 0.000316 µM) 104% | viability, T/C (second compound 0.1 µM, first compound 0.001 µM) 105% | viability, T/C (second compound 0.1 µM, first compound 0.00316 µM) 84.6% | viability, T/C (second compound 0.1 µM, first compound 0.01 µM) 51.5% | viability, T/C [3] 45.5% | viability, T/C [4] 27.8% | viability, T/C (second compound 0.316 µM, first compound 0.000316 µM) 94.2% | viability, T/C (second compound 0.316 µM, first compound 0.001 µM) 92.4% | viability, T/C (second compound 0.316 µM, first compound 0.00316 µM) 88.7% | viability, T/C (second compound 0.316 µM, first compound 0.01 µM) 64.5% | viability, T/C [5] 45.7% | viability, T/C [6] 22.8% | viability, T/C (second compound 1 µM, first compound 0.000316 µM) 98.4% | viability, T/C (second compound 1 µM, first compound 0.001 µM) 93.5% | viability, T/C (second compound 1 µM, first compound 0.00316 µM) 82.9% | viability, T/C (second compound 1 µM, first compound 0.01 µM) 57.6% | viability, T/C [7] 36.8% | viability, T/C [8] 25.4% | viability, T/C (second compound 3.16 µM, first compound 0.000316 µM) 92.1% | viability, T/C (second compound 3.16 µM, first compound 0.001 µM) 90% | viability, T/C (second compound 3.16 µM, first compound 0.00316 µM) 77.7% | viability, T/C (second compound 3.16 µM, first compound 0.01 µM) 58.1% | viability, T/C [9] 31.5% | viability, T/C [10] 27.8% | viability, T/C (second compound 10 µM, first compound 0.000316 µM) 89.5% | viability, T/C (second compound 10 µM, first compound 0.001 µM) 90.9% | viability, T/C (second compound 10 µM, first compound 0.00316 µM) 78.9% | viability, T/C (second compound 10 µM, first compound 0.01 µM) 53.4% | viability, T/C [11] 39.6% | viability, T/C [12] 25.1%
13.7 nM: IC50 (second compound 3.16 µM)
23.4 nM: IC50 (second compound 0.316 µM)
13.9 nM: IC50 (second compound 0.1 µM)
24.5 nM: IC50 (second compound 0.0316 µM)
15.4 nM: IC50 (second compound 1 µM)
